From patent US12161756B2, “Pharmaceutical-loaded nanocomposite for treating pulmonary infections” (Imam Abdulrahman Bin Faisal University, priority 2021, dated 2024) come the findings set out here.

This data set relates to HFF normal cells (Human foreskin fibroblasts). As for the experimental part: Toxicity studies were carried out to evaluate any toxic effect of developed nanoformulations. Cells were treated for 48 h with the following conditions for Zinc-containing nanocomposites: ZnFe2O4/Halloysite, Halloysite, Dexamethasone (Dex), ZnFe2O4/Halloysite/Dex, ZnFe2O4/Halloysite/Dex/PEG, and PEG. Similar protocol was used for nickel-containing nanocomposites. Treatment concentrations were as follows: 0.0375, 0.075, 0.15, and 0.3 mg/mL. In addition, cells were treated with Dex at concentrations to reflect that loaded in the nanocomposite as follows: 0.00181, 0.00362, 0.00725, and 0.01449 mg/mL. […] To choose the optimal dose, cells were exposed to specific doses at different time points. Cells were treated with dose 2 (0.075 mg/mL, see FIG. 9A), dose 3 (0.15 mg/mL, see FIG. 9B), or dose 4 (0.3 mg/mL, see FIG. 9C) for 24, 48, and 72 h.

As for `C[C@@H]1C[C@H]2[C@@H]3CCC4=CC(=O)C=C[C@]4(C)[C@@]3(F)[C@@H](O)C[C@]2(C)[C@@]1(O)C(=O)CO` [Dexamethasone, dexamethasone], the toxicity to cells entry was “induce toxicity”. Also, the “dexamethasone dose found to be less toxic / usable dose” value (human, 48 h) is listed as “up to 0.00362 mg/mL”.
